Laboratory results: patent EP4692071A1, “PHOTOCHROMIC COMPOUND, NAPHTHOL DERIVATIVE, CURABLE COMPOSITION, OPTICAL ARTICLE, LENS, AND EYEGLASS” (TOKUYAMA CORPORATION, priority 2023, dated 2024)
“And” between values parts separate entries of the source, which are not always exact repeats. Identical values can stand only once.

What was measured:
Type in all cases: physicochemical
[1] = 23°C color fading half-life τ1/2 after 240 s light irradiation
Description: • [1] Maximum Absorption Wavelength (λmax): The maximum absorption wavelength after color development, measured using a spectrophotometer (instantaneous multichannel photodetector MCPD3000) manufactured by Otsuka Electronics Co., Ltd. was used as an indicator for the color tone during the color development. • [2] 23°C Color Optical Density (A23): A difference between an absorbancy measured after light irradiation at 23°C for 240 seconds {ε(240)} and an absorbancy without light irradiation ε(0) at the maximum absorption wavelength was used as an indicator for the color optical density. […] 35°C Color Optical Density (A35): A difference between an absorbancy measured after light irradiation at 35°C for 240 seconds {ε(240)} and an absorbancy without light irradiation ε(0) at the first and second absorption wavelengths was used as an indicator for the color optical density. […] 23°C color fading half-life [τ1/2 (sec.)]: A time required for the absorbancy of the sample at the maximum absorption wavelength to decrease to 1/2 of {ε(240)-ε(0)} when the light irradiation is terminated after the light irradiation at 23°C for 240 seconds, was used as an indicator for the color fading speed. The shorter this time, the higher the color fading speed. • [6] Residual rate (A90/A0×100): The obtained photochromic plastic lens was subjected to accelerated deterioration using a xenon weather meter X25 manufactured by Suga Test Instruments Co., Ltd. for 90 hours. Subsequently, the color optical density was evaluated before and after the test, then a color optical density before the test (A0) and a color optical density after the test (A90) were measured, and a ratio (A90/A0) was defined as a residual rate. The residual rate was used as an indicator for a color developing durability. The higher the residual rate, the higher the color developing durability.

[2] = Residual rate (A90/A0×100) after 90 h accelerated deterioration in xenon weather meter X25, color developing durability; details: for Residual rate (%): xenon weather meter 90 hours; for Residual rate: photochromic laminate prepared by coating method, after 90 h accelerated deterioration
Procedure, shortened: (§1)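 Read-out: absorbance at λmax, multichannel photodetector spectrophotometer. Colour density = ε(240) − ε(0), 240 s light, 23°C. τ1/2 = time for ε(240) − ε(0) to halve after light off. Residual rate compares density before and after 90 h xenon weathering.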

[3] = Maximum absorption wavelength (λmax) after color development, spectrophotometer MCPD3000; details: for Maximum absorption wavelength: photochromic laminate prepared by coating method, after color development
Procedure, shortened: as §1

[4] = 35°C color optical density (A35): absorbancy difference ε(240)-ε(0) after 240 s light irradiation at 35°C; details: 240 s irradiation
Procedure, shortened: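 A photochromic cured product was irradiated with light at 35°C for 240 seconds. The 35°C color optical density (A35) was the absorbancy after irradiation {ε(240)} minus the absorbancy without irradiation ε(0), read at the first and second absorption wavelengths. It served as an indicator of color optical density.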

[5] = High-temperature color development rate (A35/A23×100), temperature dependency; details: for A35/A23 *100: photochromic laminate prepared by coating method
Procedure, shortened: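 Color optical density was taken as the absorbance after 240 seconds of light irradiation, ε(240), minus the absorbance without irradiation, ε(0), at the absorption maximum. It was measured at 23°C (A23) and at 35°C (A35), and the ratio A35/A23×100 served as the high-temperature color development rate, showing temperature dependency.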

[6] = 23°C color optical density (A23): absorbancy difference ε(240)-ε(0) after 240 s light irradiation at 23°C; details: 240 s irradiation
Procedure, shortened: as §1

[7] = photochromic laminate by coating method
[8] = photochromic laminate by coating method, 40 µm photochromic layer on thiourethane lens, 0.25 mmol compound per 100 g monomers
[9] = photochromic laminate by coating method, at the maximum absorption wavelength
[10] = cured product by kneading method, 1 mm
[11] = photochromic cured product by kneading method, 1 mm thick thiourethane, 0.106 mmol per 100 g monomers
[12] = binder sheet (binder method), urethaneurea resin photochromic layer between polycarbonate sheets, 0.25 mmol per 100 parts by mass resin

Row | Compound | 23°C color fading half-life [1] [s] | Residual rate (%) [2, 7] [%] | Maximum absorption wavelength (nm) [3, 8] | A35 (-) [4, 7] | A35/A23 *100 (%) [5, 7] [%] | A23 (-) [6, 9] | Residual rate [2] [%] | Maximum absorption wavelength [3] [nm] | A35/A23 *100 [5] [%] | Residual rate (%) [2, 10] [%] | Maximum absorption wavelength (nm) [3, 11] [nm] | A35 (-) [4, 10] | A35/A23 *100 (%) [5, 10] [%] | A23 (-) [6, 10] | Residual rate (%) ([2]; binder sheet (binder method)) | Maximum absorption wavelength (nm) [3, 12] [nm] | A35 (-) ([4]; binder sheet (binder method)) | A35/A23 *100 (%) ([5]; binder sheet (binder method)) | A23 (-) ([6]; binder sheet (binder method))
1 | CCCCN(c1ccc(C(F)(F)F)cc1)c1cc2c3c(c4c(c2cc1OC)OC(c1ccc(C)cc1)(c1ccc(OC)cc1)C=C4)C1(CCCCCCCCCCC1)c1cc(OC)ccc1-3 (stereo not shown) [Example 54 Formula (123)] | 175 | 78 | 453 nm and 583 nm | 0.60 - and 0.80 - | 74 | 0.82 - and 1.08 - |  |  |  |  |  |  |  |  |  |  |  |  | 
2 | COCCCCC1(CCCCOC)c2ccccc2-c2c1c1c(c3cc(C)c(N(C)c4ccccc4)cc23)OC(c2ccc(C)cc2)(c2ccc(OC)cc2)C=C1 (stereo not shown) [Example 5 Formula (43)] | 90 | 73 | 442 nm | 0.79 - | 66 | 1.19 - |  |  |  |  |  |  |  |  |  |  |  |  | 
3 | CCCCC1(CCCC)c2cc(C(F)(F)F)ccc2-c2c1c1c(c3cc(C)c(N4CCc5ccccc54)cc23)OC(c2ccc(OC)cc2)(c2ccc(OC)c(C)c2)C=C1 (stereo not shown) [Formula (64A)] | 66 |  |  |  |  |  | 64 | 523 | 65 |  |  |  |  |  |  |  |  |  | 
4 | CCCc1ccc(C2(c3ccc(OC)cc3)C=Cc3c4c(c5cc(N6CCc7ccccc76)c(OC)cc5c3O2)-c2ccc(-c3ccc(C(F)(F)F)cc3)cc2C4(CCOC)CCOC)cc1 (stereo not shown) [Formula (85A)] | 56 |  |  |  |  |  | 65 | 530 | 69 |  |  |  |  |  |  |  |  |  | 
5 | CCCOc1ccc(C2(c3ccc(OC)cc3)C=Cc3c4c(c5cc(N6CCc7ccccc76)c(C)cc5c3O2)-c2ccccc2C4(CCC)CCC)cc1 (stereo not shown) [Formula (31A)] | 63 |  |  |  |  |  | 67 | 520 | 65 |  |  |  |  |  |  |  |  |  | 
6 | CCCOc1ccc(C2(c3ccc(OC)cc3)C=Cc3c4c(c5cc(N(C)c6ccccc6)c(C)cc5c3O2)-c2ccc(C)cc2C4(CCCCOC)CCCCOC)cc1 (stereo not shown) [Example 17 Formula (79)] |  | 78 | 558 nm | 0.71 - | 67 | 1.06 - |  |  |  | 84 | 562 | 0.75 - | 69 | 1.09 - |  |  |  |  | 
7 | CCCOc1ccc(C2(c3ccc(OCCC)cc3)C=Cc3c4c(c5cc(N(C)c6ccc(C)cc6)c(OC)cc5c3O2)-c2ccccc2C4(CCCCOC)CCCCOC)cc1 [Example 20 Formula (85)] |  | 81 | 503 nm | 0.85 - | 70 | 1.22 - |  |  |  | 85 | 507 | 0.87 - | 70 | 1.24 - | 93 | 503 | 0.86 - | 70 | 1.23 -
8 | CCCC1(CCC)c2ccccc2-c2c1c1c(c3cc(OC)c(N(C)c4ccccc4)cc23)OC(c2ccc(OC)cc2)(c2ccc(OC)cc2)C=C1 [Example 3 Formula (32)] |  | 84 | 498 nm | 0.74 - | 68 | 1.0897 - |  |  |  | 90 | 502 | 0.77 - | 69 | 1.12 - | 97 | 498 | 0.76 - | 68 | 1.11 -
9 | CCCCC1(CCCC)c2ccccc2-c2c1c1c(c3cc(OC)c(N(c4ccc(F)cc4)c4ccc(F)cc4)cc23)OC(c2ccc(OC)cc2)(c2ccc(OC)cc2)C=C1 [Example 12 Formula (66)] |  | 81 | 501 nm | 0.92 - | 67 | 1.38 - |  |  |  |  |  |  |  |  | 94 | 501 | 0.93 - | 67 | 1.40 -
10 | CCCCC1(CCCC)c2cc([Si](C)(C)C(C)(C)C)ccc2-c2c1c1c(c3cc(OC)c(N(CC)c4ccccc4)cc23)OC(c2ccc(OC)cc2)(c2ccc(OCCC)cc2)C=C1 (stereo not shown) [Example 46 Formula (99)] |  | 78 | 504 nm | 0.90 - | 70 | 1.29 - |  |  |  |  |  |  |  |  |  |  |  |  | 
11 | COc1ccc(C2(c3ccc(OC)cc3)C=Cc3c4c(c5cc(N(C)c6ccccc6)c(OC)cc5c3O2)-c2ccccc2C4(C)C)cc1 [Example 1 Formula (28)] |  | 83 | 501 nm | 0.79 - | 69 | 1.15 - |  |  |  | 89 | 505 | 0.83 - | 70 | 1.19 - | 95 | 501 | 0.80 - | 69 | 1.17 -
